In patent publication US20170260178A1 (SPERO GYRASE, INC., priority 2012, published 2017):
≈ marks a conversion by molar mass, not a printed value.

Columns and labels:
[1] = tested on: H. influenzae (ATCC 49247); experiment: Bacterial assay: MIC against H. influenzae; format: cell-based; details: Haemophilus influenzae, ATCC49247; H. influenzae ATCC 49247; read-out: minimal inhibitory concentration (MIC)
S. aureus (ATCC 29213) = experiment: Bacterial assay: MIC against S. aureus; format: cell-based, Staphylococcus aureus; details: Staphylococcus aureus, ATCC29213, read-out: minimal inhibitory concentration (MIC)
S. pyogenes (ATCC 51339) = experiment: Bacterial assay: MIC against S. pyogenes; format: cell-based, Streptococcus pyogenes; details: Streptococcus pyogenes, ATCC51339, read-out: minimal inhibitory concentration (MIC)

SMILES	MIC [1] [µg/mL]	MIC (S. aureus (ATCC 29213)) [µg/mL]	MIC (S. pyogenes (ATCC 51339)) [µg/mL]
CCNC(=O)Nc1nc2cc(-c3cnc([C@@H](O)[C@H](C)O)nc3)cc(-c3ccccn3)c2s1 (relative stereo) [Compound 7, 1-[5-[2-[(1S*,2R*)-1,2-dihydroxypropyl]pyrimidin-5-yl]-7-(2-pyridyl)-1,3-benzothiazol-2-yl]-3-ethyl-urea]	≤ 2	≤ 1	≤ 1
CCNC(=O)Nc1nc2cc(-c3cnc([C@@]4(O)CCOC[C@H]4O)nc3)cc(-c3ccccn3)c2s1 (relative stereo) [Compound 8, 1-[5-[2-[(3R*,4S*)-3,4-dihydroxytetrahydropyran-4-yl]pyrimidin-5-yl]-7-(2-pyridyl)-1,3-benzothiazol-2-yl]-3-ethyl-urea]	≤ 2	≤ 1	≤ 1
CCNC(=O)Nc1nc2cc(-c3cnc([C@@H](O)[C@@H](C)O)nc3)cc(-c3ccccn3)c2s1 (relative stereo) [Compound 118, 1-[5-[2-[(1R*,2R*)-1,2-dihydroxypropyl]pyrimidin-5-yl]-7-(2-pyridyl)-1,3-benzothiazol-2-yl]-3-ethyl-urea]	≤ 2	≤ 1	≤ 1
CCNC(=O)Nc1nc2cc(-c3cnc([C@@H](O)[C@H](O)C(F)F)nc3)cc(-c3ccccn3)c2s1 (relative stereo) [Compound 130, 1-[5-[2-[(1R*,2S*)-3,3-difluoro-1,2-dihydroxy-propyl]pyrimidin-5-yl]-7-(2-pyridyl)-1,3-benzothiazol-2-yl]-3-ethyl-urea]	≤ 2	≤ 1	≤ 1
CCNC(=O)Nc1nc2cc(-c3cnc([C@@H](O)[C@H](O)C(F)(F)F)nc3)cc(-c3ccccn3)c2s1 (relative stereo) [Compound 131, 1-ethyl-3-[7-(2-pyridyl)-5-[2-[(1R*,2S*)-3,3,3-trifluoro-1,2-dihydroxy-propyl]pyrimidin-5-yl]-1,3-benzothiazol-2-yl]urea]	≤ 2	≤ 1	≤ 1
CCNC(=O)Nc1nc2cc(-c3cnc(C(C)O)cn3)cc(-c3ccccn3)c2s1 (stereo not drawn) [Compound 6, 1-ethyl-3-[5-[5-(1-hydroxyethyl)pyrazin-2-yl]-7-(2-pyridyl)-1,3-benzothiazol-2-yl]urea]	≤ 2	≤ 1	≤ 1
CCNC(=O)Nc1nc2cc(-c3cnc(C(C)(C)O)nc3)cc(-c3ncccn3)c2s1 [Compound 10, 1-ethyl-3-[5-[2-(1-hydroxy-1-methyl-ethyl)pyrimidin-5-yl]-7-pyrimidin-2-yl-1,3-benzothiazol-2-yl]urea]	≤ 2	≤ 1	≤ 1
CCNC(=O)Nc1nc2cc(-c3cnc(C(C)O)nc3)cc(-c3cc(CSC)ccn3)c2s1 (stereo not drawn) [Compound 15, 1-ethyl-3-[5-[2-(1-hydroxyethyl)pyrimidin-5-yl]-7-[4-(methylsulfanylmethyl)-2-pyridyl]-1,3-benzothiazol-2-yl]urea]	≤ 2	≤ 1	≤ 1
CCNC(=O)Nc1nc2cc(-c3cnc([C@@H](C)O)nc3)cc(-c3ccccn3)c2s1 [Compound 22, 1-ethyl-3-[5-[2-[(1R)-1-hydroxyethyl]pyrimidin-5-yl]-7-(2-pyridyl)-1,3-benzothiazol-2-yl]urea]	≤ 2	≤ 1	≤ 1
CCNC(=O)Nc1nc2cc(-c3cnc([C@H](C)O)nc3)cc(-c3ccccn3)c2s1 [Compound 23, 1-ethyl-3-[5-[2-[(1S)-1-hydroxyethyl]pyrimidin-5-yl]-7-(2-pyridyl)-1,3-benzothiazol-2-yl]urea]	≤ 2	≤ 1	≤ 1
CCNC(=O)Nc1nc2cc(-c3ccc(C(C)(C)O)nc3)cc(-c3ccccn3)c2s1 [Compound 27, 1-ethyl-3-[5-[6-(1-hydroxy-1-methyl-ethyl)-3-pyridyl]-7-(2-pyridyl)-1,3-benzothiazol-2-yl]urea]	≤ 2	≤ 1	≤ 1
CCNC(=O)Nc1nc2cc(-c3cnc(C(C)(C)O)nc3)cc(-c3cc(CN4CCOCC4)ccn3)c2s1 [Compound 28, 1-ethyl-3-[5-[2-(1-hydroxy-1-methyl-ethyl)pyrimidin-5-yl]-7-[4-(morpholinomethyl)-2-pyridyl]-1,3-benzothiazol-2-yl]urea]	≤ 2	≤ 1	≤ 1
CCNC(=O)Nc1nc2cc(-c3cnc(C(C)(C)O)nc3)cc(-c3cc(CN4CC(O)C4)ccn3)c2s1 [Compound 30, 1-ethyl-3-[7-[4-[(3-hydroxyazetidin-1-yl)methyl]-2-pyridyl]-5-[2-(1-hydroxy-1-methyl-ethyl)pyrimidin-5-yl]-1,3-benzothiazol-2-yl]urea]	≤ 2	≤ 1	≤ 1
CCNC(=O)Nc1nc2cc(-c3cnc(C(C)(C)O)nc3)cc(-c3cc(CN4CC(OC)C4)ccn3)c2s1 [Compound 31, 1-ethyl-3-[5-[2-(1-hydroxy-1-methyl-ethyl)pyrimidin-5-yl]-7-[4-[(3-methoxyazetidin-1-yl)methyl]-2-pyridyl]-1,3-benzothiazol-2-yl]urea]	≤ 2	≤ 1	≤ 1
CCNC(=O)Nc1nc2cc(-c3cnc(C(C)(C)O)nc3)cc(-c3cc(OCCN4CCOCC4)ccn3)c2s1 [Compound 32, 1-ethyl-3-[5-[2-(1-hydroxy-1-methyl-ethyl)pyrimidin-5-yl]-7-[4-(2-morpholinoethoxy)-2-pyridyl]-1,3-benzothiazol-2-yl]urea]	≤ 2	≤ 1	≤ 1
CCNC(=O)Nc1nc2cc(-c3cnc(C(C)(C)O)nc3)cc(-c3cc(CN4CC[C@H](F)C4)ccn3)c2s1 [Compound 35, 1-ethyl-3-[7-[4-[[(3S)-3-fluoropyrrolidin-1-yl]methyl]-2-pyridyl]-5-[2-(1-hydroxy-1-methyl-ethyl)pyrimidin-5-yl]-1,3-benzothiazol-2-yl]urea]	≤ 2	≤ 1	≤ 1
CCNC(=O)Nc1nc2cc(-c3cnc(C(C)(C)O)nc3)cc(-c3cc(CN4CC[C@@H](F)C4)ccn3)c2s1 [Compound 36, 1-ethyl-3-[7-[4-[[(3R)-3-fluoropyrrolidin-1-yl]methyl]-2-pyridyl]-5-[2-(1-hydroxy-1-methyl-ethyl)pyrimidin-5-yl]-1,3-benzothiazol-2-yl]urea]	≤ 2	≤ 1	≤ 1
CCNC(=O)Nc1nc2cc(-c3cnc(C(C)(C)O)nc3)cc(-c3cc(OCCCN4CCOCC4)ccn3)c2s1 [Compound 38, 1-ethyl-3-[5-[2-(1-hydroxy-1-methyl-ethyl)pyrimidin-5-yl]-7-[4-(3-morpholinopropoxy)-2-pyridyl]-1,3-benzothiazol-2-yl]urea]	≤ 2	≤ 1	≤ 1
CCNC(=O)Nc1nc2cc(-c3cnc(C(C)(C)O)nc3)c(OCCO)cc2s1 [Compound 186, 1-ethyl-3-[6-(2-hydroxyethoxy)-5-[2-(1-hydroxy-1-methyl-ethyl)pyrimidin-5-yl]-1,3-benzothiazol-2-yl]urea]	–	4 (≈ 9.58 µM)	2 (≈ 4.79 µM)
CCNC(=O)Nc1nc2cc(-c3cnc(C(C)(C)O)nc3)cc(-c3cc(CN4CC[S+]([O-])CC4)ccn3)c2s1 [Compound 188, 1-ethyl-3-[5-[2-(1-hydroxy-1-methyl-ethyl)pyrimidin-5-yl]-7-[4-[(1-oxo-1,4-thiazinan-4-yl)methyl]-2-pyridyl]-1,3-benzothiazol-2-yl]urea]	–	≤ 1	≤ 1
CCNC(=O)Nc1nc2cc(-c3cnc(C(C)(C)O)nc3)cc(-c3cc(CN4CCS(=O)(=O)CC4)ccn3)c2s1 [Compound 191, 1-[7-[4-[(1,1-dioxo-1,4-thiazinan-4-yl)methyl]-2-pyridyl]-5-[2-(1-hydroxy-1-methyl-ethyl)pyrimidin-5-yl]-1,3-benzothiazol-2-yl]-3-ethyl-urea]	–	≤ 1	≤ 1
CCNC(=O)Nc1nc2cc(-c3cnc(C(C)(C)O)nc3)c(OCc3ccc(OC)c(OC)c3)cc2s1 [Compound 192, 1-[6-[(3,4-dimethoxyphenyl)methoxy]-5-[2-(1-hydroxy-1-methyl-ethyl)pyrimidin-5-yl]-1,3-benzothiazol-2-yl]-3-ethyl-urea]	–	≤ 1	≤ 1
CCNC(=O)Nc1nc2cc(-c3cnc(C(C)O)nc3)c(OCC3CCCO3)cc2s1 (stereo not drawn) [Compound 193, 1-ethyl-3-[5-[2-[1-hydroxyethyl]pyrimidin-5-yl]-6-(tetrahydrofuran-2-ylmethoxy)-1,3-benzothiazol-2-yl]urea]	–	≤ 1	2 (≈ 4.51 µM)
CCNC(=O)Nc1nc2cc(-c3cncc(C(C)O)c3)cc(-c3ccccn3)c2s1 (stereo not drawn) [Compound 197, 1-ethyl-3-[5-[5-(1-hydroxyethyl)-3-pyridyl]-7-(2-pyridyl)-1,3-benzothiazol-2-yl]urea]	–	≤ 1	≤ 1
[2H]C1([2H])OC([2H])([2H])C([2H])([2H])N(Cc2ccnc(-c3cc(-c4cnc(C(C)(C)O)nc4)cc4nc(NC(=O)NCC)sc34)c2)C1([2H])[2H] [Compound 198, 1-ethyl-3-[5-[2-(1-hydroxy-1-methyl-ethyl)pyrimidin-5-yl]-7-[4-[(2,2,3,3,5,5,6,6-octadeuteriomorpholin-4-yl)methyl]-2-pyridyl]-1,3-benzothiazol-2-yl]urea]	≤ 2	≤ 1	–
CCNC(=O)Nc1nc2cc(-c3cnc(C(C)(C)O)nc3)c(OCCN3CCOCC3)cc2s1 [Compound 199, 1-ethyl-3-[5-[2-(1-hydroxy-1-methyl-ethyl)pyrimidin-5-yl]-6-(2-morpholinoethoxy)-1,3-benzothiazol-2-yl]urea]	–	2 (≈ 4.11 µM)	2 (≈ 4.11 µM)
CCNC(=O)Nc1nc2cc(-c3cnc([C@@H](C)O)nc3)cc(-c3ccc(OC)cn3)c2s1 [Compound 202, 1-ethyl-3-[5-[2-[(1R)-1-hydroxyethyl]pyrimidin-5-yl]-7-(5-methoxy-2-pyridyl)-1,3-benzothiazol-2-yl]urea]	≤ 2	≤ 1	–
